# Experimental data reported in ChEMBL document CHEMBL5532680, “Identification of a Sonically Activated Degrader of Methionine Adenosyltransferase 2A by an in Silico Approach Assisted with the Hole-Electron Analysis” (J Med Chem, 2024).
# The source made the active and inactive calls. The calls are words filed in the database; no cut-off is given here.
# How the values were obtained:
# HCT-116 [1] = assay: Induction of apoptosis in MTAP knocked out human HCT-116 cells at 0.1 uM preincubated for 24 hrs followed by sonication for 4 mins by annexin V-FITC/PI staining based flow cytometry analysis relative to control; assay type: functional, cell-based; details: time 1444.0 min
# [2] = Mean residence time in BALB/c mouse at 10 mg/kg, po measured upto 24 hrs by LC-MS/MS analysis; assay type: ADME, organism-based; details: in vivo
# [3] = Biodistribution in MATP knocked out human HCT-116 cells xenografted in BALB/c mouse assessed as fluorescence intensity in skin at 10 mg/kg, po measured after 24 hrs; assay type: ADME, organism-based; details: in vivo
# [4] = Half-life in ICR mouse at 1 mg/kg, iv measured upto 24 hrs by LC-MS/MS analysis; assay type: ADME, organism-based; details: in vivo
# [5] = Biodistribution in MATP knocked out human HCT-116 cells xenografted in BALB/c mouse assessed as fluorescence intensity in spleen at 10 mg/kg, po measured after 24 hrs; assay type: ADME, organism-based; details: in vivo
# [6] = molecular target: T1, S-adenosylmethionine synthase isoform type-2 (Homo sapiens, UniProt P31153); assay: Induction of MAT2A degradation in human HCT-116 cells assessed as MAT2A level at 0.1 uM preincubated for 4 hrs followed by 1.0 MHz, 0.8W/cm2 ultrasound treatment for 4 mins by Western blotting assay; assay type: cell-based; details: time 244.0 min
# Target sequence in this assay (P31153 whole entry, looked up, canonical isoform): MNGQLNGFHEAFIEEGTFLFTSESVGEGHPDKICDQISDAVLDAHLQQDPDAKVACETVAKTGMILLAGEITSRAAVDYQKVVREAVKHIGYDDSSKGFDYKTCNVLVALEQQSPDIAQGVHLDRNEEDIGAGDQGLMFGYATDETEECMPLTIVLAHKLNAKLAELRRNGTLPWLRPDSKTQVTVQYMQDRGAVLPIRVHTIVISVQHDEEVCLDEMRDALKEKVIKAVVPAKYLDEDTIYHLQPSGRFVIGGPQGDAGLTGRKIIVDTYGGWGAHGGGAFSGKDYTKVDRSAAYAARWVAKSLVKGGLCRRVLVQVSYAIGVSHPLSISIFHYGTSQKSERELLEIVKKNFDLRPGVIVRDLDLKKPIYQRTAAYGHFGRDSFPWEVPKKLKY
# [7] = AUC(0 to 24 hrs) in BALB/c mouse at 10 mg/kg, po measured upto 24 hrs by LC-MS/MS analysis; assay type: ADME, organism-based; details: in vivo
# HCT-116 [8] = assay: Antitumor activity against […] knocked out human HCT-116 cells xenografted in BALB/c mouse assessed as tumor regression at 10 mg/kg, po administered once a day followed by 4 mins sonication post 6 hrs of compound administration and measured for 3 weeks; assay type: functional
# Cytochrome P450 2C19 = Cytochrome P450 2C19 (Homo sapiens, UniProt P33261); assay: Inhibition of CYP2C19 (unknown origin); assay type: ADME
# [9] = Toxicity in BALB/c mouse xenografted with human HCT-116 cells assessed as liver tissue rupture at 50 mg/kg, po by H and E staining based assay; assay type: organism-based; details: in vivo
# [10] = molecular target: T1, S-adenosylmethionine synthase isoform type-2; assay: Inhibition of recombinant human MAT2A expressed in baculovirus infected Sf9 cells using L-methione as substrate preincubated for 15 mins followed by substrate addition and measured after 60 mins in presence of ATP by Kinase-Glo luminescent assay
# Target sequence in this assay (P31153 whole entry, canonical isoform): as the sequence (P31153 whole entry, looked up, canonical isoform) above
# [11] = Biodistribution in […] knocked out human HCT-116 cells xenografted in BALB/c mouse assessed as fluorescence intensity in heart at 10 mg/kg, po measured after 24 hrs; assay type: ADME, organism-based; details: in vivo
# HCT-116 [12] = assay: Induction of apoptosis in human HCT-116 cells assessed as increase in late apoptotic cells at 0.1 uM preincubated for 24 hrs followed by sonication for 4 mins by annexin V-FITC/PI staining based flow cytometry analysis relative to control; assay type: functional; details: time 1444 min, 24.07 h
# [13] = Biodistribution in MATP knocked out human HCT-116 cells xenografted in BALB/c mouse assessed as fluorescence intensity in lung at 10 mg/kg, po measured after 24 hrs; assay type: ADME, organism-based; details: in vivo
# HCT-116 [14] = assay: Antiproliferative activity against MTAP knocked out human HCT-116 cells under 4 mins sonication; assay type: functional, cell-based; details: HCT-116, 4 min
# HCT-116 [15] = assay: Antiproliferative activity against wild type human HCT-116 cells assessed as cell viability at 10 uM under 4 mins sonication; assay type: functional; details: HCT-116, 4 min, read-out: Activity
# [16] = Toxicity in BALB/c mouse xenografted with human HCT-116 cells assessed as heart damage at 10 mg/kg, po by H and E staining based assay; assay type: organism-based; details: in vivo
# [17] = Toxicity in BALB/c mouse xenografted with human HCT-116 cells assessed as change in liver cell nucleus shape at 100 mg/kg, po by H and E staining based assay; assay type: organism-based; details: in vivo
# HCT-116 [18] = assay: Induction of ROS generation in human HCT-116 cells assessed as fold increase at 0.1 uM preincubated for 6 hrs followed by sonication for 4 mins by DCFH-DA staining based flow cytometry analysis; assay type: functional; details: time 364 min, 6.067 h
# HCT-116 [19] = assay: Antiproliferative activity against MTAP knocked out human HCT-116 cells incubated for 5 days by MTT method; assay type: functional, cell-based; details: HCT-116, 120 h
# MDR1 (P-gp) = assay: Efflux ratio of apparent permeability in MDCKII-MDR1 cells; assay type: ADME, cell-based, Canis lupus familiaris; details: dog, MDCK-MDR1
# [20] = molecular target: T1, S-adenosylmethionine synthase isoform type-2; assay: Inhibition of recombinant human MAT2A expressed in baculovirus infected Sf9 cells at grated than 10 nM using L-methione as substrate preincubated for 15 mins followed by substrate addition and measured after 60 mins in presence of ATP by Kinase-Glo luminescent assay; details: time 75.0 min
# Target sequence in this assay (P31153 whole entry, looked up, canonical isoform): as above
# [21] = Toxicity in BALB/c mouse xenografted with human HCT-116 cells assessed as liver damage at 10 mg/kg, po by H and E staining based assay; assay type: organism-based; details: in vivo
# [22] = Toxicity in BALB/c mouse xenografted with human HCT-116 cells assessed as inflammatory cells infiltration at 50 mg/kg, po by H and E staining based assay; assay type: organism-based; details: in vivo
# HCT-116 [23] = assay: Antitumor activity against […] knocked out human HCT-116 cells xenografted in BALB/c mouse assessed as reduction in tumor weight at 10 mg/kg, po administered once a day followed by 4 mins sonication post 6 hrs of compound administration and measured for 3 weeks; assay type: functional, organism-based
# [24] = Cmax in ICR mouse at 10 mg/kg, po measured upto 24 hrs by LC-MS/MS analysis; assay type: ADME, organism-based; details: in vivo
# [25] = Half-life in ICR mouse at 10 mg/kg, po measured upto 24 hrs by LC-MS/MS analysis; assay type: ADME, organism-based; details: in vivo
# HCT-116 [26] = assay: Antiproliferative activity against MTAP knocked out human HCT-116 cells under 1 min sonication; assay type: functional, cell-based; details: HCT-116, 1 min
# HCT-116 [27] = assay: Antitumor activity against […] knocked out human HCT-116 cells xenografted in BALB/c mouse assessed as tumor growth inhibition at 10 mg/kg, po administered once a day for 6 hrs and measured after 3 weeks; assay type: functional; details: HCT-116, 504 h, read-out: TGI
# [28] = molecular target: Voltage-gated inwardly rectifying potassium channel KCNH2 (Homo sapiens, UniProt Q12809); assay: Inhibition of hERG by plate based patch clamp method; assay type: toxicity
# [29] = Toxicity in BALB/c mouse xenografted with human HCT-116 cells assessed as kidney damage at 100 mg/kg, po by H and E staining based assay; assay type: organism-based; details: in vivo
# [30] = Biodistribution in […] knocked out human HCT-116 cells xenografted in BALB/c mouse assessed as fluorescence intensity in kidney at 10 mg/kg, po measured after 24 hrs; assay type: ADME, organism-based; details: in vivo
# Cytochrome P450 2D6 = Cytochrome P450 2D6 (Homo sapiens, UniProt P10635); assay: Inhibition of CYP2D6 (unknown origin); assay type: ADME
# [31] = Toxicity in BALB/c mouse xenografted with human HCT-116 cells assessed as spleen damage at 100 mg/kg, po by H and E staining based assay; assay type: organism-based; details: in vivo
# [32] = Toxicity in BALB/c mouse xenografted with human HCT-116 cells assessed as kidney damage at 10 mg/kg, po by H and E staining based assay; assay type: organism-based; details: in vivo
# Sequence of Cytochrome P450 2C19 (P33261 whole entry): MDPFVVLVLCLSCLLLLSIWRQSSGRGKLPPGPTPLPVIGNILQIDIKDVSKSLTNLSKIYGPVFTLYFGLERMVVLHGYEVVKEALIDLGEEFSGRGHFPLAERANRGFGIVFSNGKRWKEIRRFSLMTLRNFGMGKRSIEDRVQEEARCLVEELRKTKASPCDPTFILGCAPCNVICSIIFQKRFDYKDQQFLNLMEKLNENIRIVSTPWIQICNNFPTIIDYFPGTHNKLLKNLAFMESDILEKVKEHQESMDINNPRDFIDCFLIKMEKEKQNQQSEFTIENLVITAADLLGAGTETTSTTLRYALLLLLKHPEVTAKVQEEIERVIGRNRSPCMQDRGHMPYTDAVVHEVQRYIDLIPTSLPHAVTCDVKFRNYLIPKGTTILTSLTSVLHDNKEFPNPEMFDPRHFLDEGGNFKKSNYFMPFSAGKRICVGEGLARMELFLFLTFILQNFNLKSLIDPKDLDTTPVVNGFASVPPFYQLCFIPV
# Sequence of Cytochrome P450 2D6 (P10635 whole entry): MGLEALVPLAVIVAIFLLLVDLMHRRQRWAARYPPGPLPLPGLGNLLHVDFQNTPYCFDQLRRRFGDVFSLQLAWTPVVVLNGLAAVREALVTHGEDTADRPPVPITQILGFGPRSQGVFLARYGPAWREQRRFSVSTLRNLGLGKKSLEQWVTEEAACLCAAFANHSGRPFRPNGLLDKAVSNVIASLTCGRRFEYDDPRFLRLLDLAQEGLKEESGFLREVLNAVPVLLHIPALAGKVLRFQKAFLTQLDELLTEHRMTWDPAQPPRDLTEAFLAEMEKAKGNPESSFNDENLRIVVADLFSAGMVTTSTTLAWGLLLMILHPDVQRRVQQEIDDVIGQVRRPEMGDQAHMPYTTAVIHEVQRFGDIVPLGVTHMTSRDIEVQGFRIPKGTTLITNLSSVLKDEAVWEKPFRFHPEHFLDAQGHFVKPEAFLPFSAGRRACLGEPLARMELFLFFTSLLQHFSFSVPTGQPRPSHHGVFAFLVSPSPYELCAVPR
# Sequence of Voltage-gated inwardly rectifying potassium channel KCNH2 (Q12809 whole entry): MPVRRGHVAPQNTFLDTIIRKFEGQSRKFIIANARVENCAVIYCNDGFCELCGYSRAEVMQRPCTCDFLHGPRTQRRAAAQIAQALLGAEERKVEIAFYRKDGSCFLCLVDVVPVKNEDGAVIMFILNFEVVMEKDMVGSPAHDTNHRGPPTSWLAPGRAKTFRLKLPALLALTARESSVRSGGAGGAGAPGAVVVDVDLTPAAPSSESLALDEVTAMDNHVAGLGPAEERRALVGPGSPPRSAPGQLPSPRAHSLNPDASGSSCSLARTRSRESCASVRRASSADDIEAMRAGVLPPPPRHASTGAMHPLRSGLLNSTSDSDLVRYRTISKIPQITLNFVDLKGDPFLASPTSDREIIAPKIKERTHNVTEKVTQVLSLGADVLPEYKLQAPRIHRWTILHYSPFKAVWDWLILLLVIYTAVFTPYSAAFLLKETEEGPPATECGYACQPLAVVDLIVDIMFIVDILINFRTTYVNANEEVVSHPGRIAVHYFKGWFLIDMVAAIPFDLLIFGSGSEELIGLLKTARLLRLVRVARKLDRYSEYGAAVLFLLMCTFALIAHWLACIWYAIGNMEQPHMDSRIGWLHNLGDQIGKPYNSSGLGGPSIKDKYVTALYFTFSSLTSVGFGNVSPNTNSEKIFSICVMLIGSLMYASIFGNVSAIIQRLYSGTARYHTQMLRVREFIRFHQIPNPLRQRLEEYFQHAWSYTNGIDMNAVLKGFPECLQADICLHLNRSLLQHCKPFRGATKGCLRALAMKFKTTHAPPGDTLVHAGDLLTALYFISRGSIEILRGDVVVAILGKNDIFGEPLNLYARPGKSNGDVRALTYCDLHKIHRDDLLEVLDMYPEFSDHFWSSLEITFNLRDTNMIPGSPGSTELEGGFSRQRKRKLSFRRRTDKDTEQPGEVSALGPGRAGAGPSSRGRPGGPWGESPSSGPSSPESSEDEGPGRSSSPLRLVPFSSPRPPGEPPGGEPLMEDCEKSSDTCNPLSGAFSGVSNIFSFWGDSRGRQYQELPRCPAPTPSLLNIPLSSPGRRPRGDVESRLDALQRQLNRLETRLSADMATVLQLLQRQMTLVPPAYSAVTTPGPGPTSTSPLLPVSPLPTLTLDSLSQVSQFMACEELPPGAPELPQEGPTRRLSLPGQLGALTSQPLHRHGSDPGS
compound,measurement,setting,value
CCOc1ncc2cc(-c3ccc4c(c3)N3CCCC3CO4)c(=O)n(-c3ccc(OC(F)F)cc3)c2n1 (stereo not given),Activity,HCT-116 [1],Active
same,MRT,[2],5.1 h
same,Drug uptake,[3],Active
same,half-life,[4],1.6 h
same,Drug uptake,[5],Not Active
same,Activity,[6],13%
same,AUC,[7],9714 ng·h/mL
same,Activity,HCT-116 [8],31%
same,IC50,Cytochrome P450 2C19,16000 nM
same,Activity,[9],Toxic
same,IC50,[10],61 nM
same,Drug uptake,[11],Not Active
same,Activity,HCT-116 [12],9%
same,Drug uptake,[13],Active
same,IC50,HCT-116 [14],42 nM
same,viability at 10 µM,HCT-116 [15],77%
same,Activity,[16],Non-Toxic
same,Activity,[17],Toxic
same,fold change (FC),HCT-116 [18],6
same,IC50,HCT-116 [19],350 nM
same,efflux ratio,MDR1 (P-gp),0.9
same,inhibition,[20],Active
same,Activity,[21],Non-Toxic
same,Activity,[22],Toxic
same,Activity,HCT-116 [23],Active
same,Cmax,[24],1380 ng/mL
same,half-life,[25],2.9 h
same,IC50,HCT-116 [26],79 nM
same,inhibition in vivo at 10 mg/kg,HCT-116 [27],15.6%
same,IC50,[28],> 50000 nM
same,Activity,[29],Non-Toxic
same,Drug uptake,[30],Not Active
same,IC50,Cytochrome P450 2D6,39000 nM
same,Activity,[31],Non-Toxic
same,Activity,[32],Non-Toxic
